Measured values taken from US20260297087A1, “Pyridoimidazolone Compounds, Preparation Thereof and Therapeutic Uses Thereof” (Sanofi, priority 2023, published 2026).
Read-outs that look alike come from different tables or passages of the source.

Assays:
ERK5 = target: T1, ERK5 (Homo sapiens, UniProt Q13164); experiment: Inhibition of Cellular ERK5 Activity (cell-based assay, MEF2 luciferase reporter in SN12C cells); conditions: renal cancer cell line SN12C, doxycycline-induced MEKSDD, mean where repeated
T1 construct: MEF2-luciferase reporter
T1 sequence (Q13164 whole entry): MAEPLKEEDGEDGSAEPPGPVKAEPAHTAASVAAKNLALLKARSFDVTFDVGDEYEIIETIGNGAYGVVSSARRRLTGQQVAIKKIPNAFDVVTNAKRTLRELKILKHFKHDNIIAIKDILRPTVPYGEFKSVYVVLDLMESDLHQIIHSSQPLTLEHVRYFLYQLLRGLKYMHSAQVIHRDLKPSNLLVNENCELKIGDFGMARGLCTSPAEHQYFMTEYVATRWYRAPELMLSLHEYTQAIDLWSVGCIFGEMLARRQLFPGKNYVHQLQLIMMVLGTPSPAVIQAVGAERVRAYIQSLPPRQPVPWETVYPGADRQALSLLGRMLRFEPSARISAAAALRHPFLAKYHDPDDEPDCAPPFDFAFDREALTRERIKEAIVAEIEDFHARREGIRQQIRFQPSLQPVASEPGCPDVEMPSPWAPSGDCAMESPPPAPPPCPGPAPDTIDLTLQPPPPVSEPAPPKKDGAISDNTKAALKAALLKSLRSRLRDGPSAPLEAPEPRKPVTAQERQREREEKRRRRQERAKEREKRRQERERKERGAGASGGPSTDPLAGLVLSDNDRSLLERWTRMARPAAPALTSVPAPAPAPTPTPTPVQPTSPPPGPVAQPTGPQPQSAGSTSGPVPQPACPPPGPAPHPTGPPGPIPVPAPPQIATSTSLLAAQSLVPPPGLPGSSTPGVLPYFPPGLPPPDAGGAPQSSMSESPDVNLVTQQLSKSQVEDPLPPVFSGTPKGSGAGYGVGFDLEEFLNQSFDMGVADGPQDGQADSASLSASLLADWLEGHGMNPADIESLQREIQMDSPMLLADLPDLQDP
Protocol: (§1) Two assays were performed to assess the ERK5 inhibitory activity of compounds of the Examples, a cell-based assay and a cell-free biochemical assay. Where repeat measurements were taken, the value reported is a mean average.
The renal cancer cell line SN12C was transduced by a lentivirus pGreenFire1 MEF2 EF1 Neo (ref TR030VA-N) from SBI using standard infection protocol. pGreenFire1 MEF2 EF1 Neo allows the expression of luciferase gene under the control of minimal promoter with MEF2 transcriptional response elements. Cells harboring the reporter construct were selected by geneticin treatment. The selected cells were then transposed by a piggyback based plasmid pCM4007 allowing the expression of constitutively activated MEKSDD under control of TREG3 promoter, a doxycycline regulated promoter. Transposed cells were selected by puromycin treatment. Upon doxycycline treatment (1p g/ml) MEKSDD was expressed. MEKSDD activates ERK5 that phosphorylates MEF2C protein. Activated MEF2C protein can bind to its transcriptional response elements. Then the luciferase is expressed. In a 96-well plate (96F nuncleon refl37101 thermofisher), 50,000 cells were inoculated in 142.5 μl of RPMI medium containing 10% fetal calf serum, 1% glutamine, and 1 μg/ml doxycycline. After 24 hours, compounds were added in 7.5 μl culture medium (with 2% DMSO to give a final concentration of 0.1%) in order to obtain the desired concentration (0.3-1000 nM). The luciferase activity was measured using the Kit Bright Glo Luminescent Cell Assay Cat E2610 (Promega) according to the manufacturer's protocol. Luminescence was determined using 0.2 second reading/well using a Tecan SPARK. IC50 values were calculated using XLFIT5 for Microsoft Excel using method 205. The IC50 values represent the concentration of compound which inhibits the measurable luminescence signal by 50% as compared to DMSO-treated control cells.

[1] = target: T2, ERK5 (activated catalytic domain) (Homo sapiens, UniProt Q13164); experiment: Cell-Free Assay of ERK5 Inhibition (Time-Resolved FRET, 4EBP1 peptide phosphorylation); type: biochemical
T2 construct: purchased CarnaBiosciences 04-146
T2 sequence (Q13164 55-347 limits assumed): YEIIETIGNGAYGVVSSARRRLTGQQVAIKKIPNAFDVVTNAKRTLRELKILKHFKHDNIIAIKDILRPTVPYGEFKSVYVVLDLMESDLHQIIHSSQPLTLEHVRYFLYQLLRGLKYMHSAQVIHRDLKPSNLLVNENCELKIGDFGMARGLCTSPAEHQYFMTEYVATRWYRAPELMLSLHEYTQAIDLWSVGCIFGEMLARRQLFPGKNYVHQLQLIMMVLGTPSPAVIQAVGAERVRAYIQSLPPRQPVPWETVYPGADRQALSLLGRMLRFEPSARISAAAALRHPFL
Protocol: as §1
An assay was performed to measure the capacity of each compound to inhibit ERK5 enzymatic activity. Compound potency was evaluated by Time-Resolved Forster Resonance Energy Transfer (FRET system). The activated catalytic domain of protein ERK5 (CarnaBiosciences #04-146) was mixed at 4 nM with varying concentrations of compound and incubated for 30 minutes at room temperature. A mixture of 1 mM ATP and 1 μM biotinylated synthetic peptide was added (Biosyntan GmbH). This synthetic peptide represents amino acids 30-52 of Eukaryotic translation initiation factor 4E-binding protein 1 (see, e.g., the sequence under accession No. NP_004086.1) biotinylated at the N-terminus. After 30 minutes at 37° C., the peptide phosphorylation by ERK5 was measured by addition of FRET reagents consisting of 12.5 μg/ml Streptavidin-XL665, 1 nM Anti-P-4EBP1 antibody and 300 ng/ml Anti-rabbit-K antibody. Following 90 minutes at room temperature fluorescent signals were read on the Pherastar FSX multimod detector from BMG Labtech (Exc° 340 nm, Em1 620 nm, Em2 665 nm). The IC50 values represent the concentration of compound which inhibits the measurable fluorescence signal by 50% as compared to the DMSO only control.

[2] = ERK5 catalytic domain 4 nM, 1 mM ATP, 1 μM biotinylated 4EBP1 peptide, 30 min at 37° C., mean where repeated, read-out: Cell-free assay (IC50 in nM)

Row | SMILES | IC50 (ERK5) | IC50 [1, 2] | IC50 ([1]; footnote: repeat measurement, mean average value, read-out: Cell-free assay IC50, repeat measurement)
1 | O=C(c1ccc(S(F)(F)(F)(F)F)cc1)N1CCC(n2c(=O)[nH]c3ncc(C4CCOCC4)cc32)CC1 [Example 19, 1-[1-[4-(Pentafluoro-λ^6-sulfanyl)benzoyl]-4-piperidyl]-6-tetrahydropyran-4-yl-3H-imidazo[4,5-b]pyridin-2-one] | 199 nM | 257 nM | –
2 | O=C(c1ccc(OC(F)(F)F)cc1)N1CCC(n2c(=O)[nH]c3ncc(C4CCOC4)cc32)CC1 (racemic) [Example 15, (rac)-6-Tetrahydrofuran-3-yl-1-[1-[4-(trifluoromethoxy)benzoyl]-4-piperidyl]-3H-imidazo[4,5-b]pyridin-2-one] | 282 nM | 203 nM | –
3 | CN1CCC(Oc2cnc3[nH]c(=O)n(C4CCN(C(=O)c5ccc(OC(F)(F)F)cc5N)CC4)c3c2)CC1 [Example 7, 1-[1-[2-amino-4-(trifluoromethoxy)benzoyl]-4-piperidyl]-6-[(1-methyl-4-piperidyl)oxy]-3H-imidazo[4,5-b]pyridin-2-one] | 248 nM | 63 nM | –
4 | Nc1cc(OC(F)(F)F)ccc1C(=O)N1CCC(n2c(=O)[nH]c3ncc(N4CCO[C@H](CO)C4)cc32)CC1 [Example 10, 1-[1-[2-amino-4-(trifluoromethoxy)benzoyl]-4-piperidyl]-6-[(2S)-2-(hydroxymethyl)morpholin-4-yl]-3H-imidazo[4,5-b]pyridin-2-one] | 870 nM | 103 nM | –
5 | Nc1cc(OC(F)(F)F)ccc1C(=O)N1CCC(n2c(=O)[nH]c3ncc(C4CCNC(=O)C4)cc32)CC1 (racemic) [Example 22, (rac)-1-[1-[2-amino-4-(trifluoromethoxy)benzoyl]-4-piperidyl]-6-(2-oxo-4-piperidyl)-3H-imidazo[4,5-b]pyridin-2-one] | 140 nM | 684 nM | –
6 | Cc1nc2[nH]c(=O)n(C3CCN(C(=O)c4ccc(OC(F)(F)F)cc4N)CC3)c2cc1C1CCOCC1 [Example 20, 1-[1-[2-amino-4-(trifluoromethoxy)benzoyl]-4-piperidyl]-5-methyl-6-tetrahydropyran-4-yl-3H-imidazo[4,5-b]pyridin-2-one] | 486 nM | 1100 nM | –
7 | O=C(c1ccc(OC(F)(F)F)cc1)N1CCC(n2c(=O)[nH]c3ncc(OC4CCOCC4)cc32)CC1 [Example 4, 6-tetrahydropyran-4-yloxy-1-[1-[4-(trifluoromethoxy)benzoyl]-4-piperidyl]-3H-imidazo[4,5-b]pyridin-2-one] | 132 nM | 135 nM | –
8 | Nc1cc(OC(F)(F)F)ccc1C(=O)N1CCC(n2c(=O)[nH]c3ncc(CC4CCOC4)cc32)CC1 (racemic) [Example 23, (rac)-1-[1-[2-amino-4-(trifluoromethoxy)benzoyl]-4-piperidyl]-6-(tetrahydrofuran-3-ylmethyl)-3H-imidazo[4,5-b]pyridin-2-one] | 184 nM | 86 nM | –
9 | O=C(c1ccc(OC(F)(F)F)cc1)N1CCC(n2c(=O)[nH]c3ncc(N4CCOCC4)cc32)CC1 [Example 8, 6-N-morpholino-1-[1-[4-(trifluoromethoxy)benzoyl]-4-piperidyl]-3H-imidazo[4,5-b]pyridin-2-one] | 279 nM | 505 nM | –
10 | COCCc1cnc2[nH]c(=O)n(C3CCN(C(=O)c4ccc(OC(F)(F)F)cc4N)CC3)c2c1 [Example 24, 1-[1-[2-amino-4-(trifluoromethoxy)benzoyl]-4-piperidyl]-6-(2-methoxyethyl)-3H-imidazo[4,5-b]pyridin-2-one] | 67 nM | 502 nM | –
11 | O=C(c1ccc(OC(F)(F)F)cc1O)N1CCC(n2c(=O)[nH]c3ncc(C4CCOCC4)cc32)CC1 [Example 18, 1-[1-[2-Hydroxy-4-(trifluoromethoxy)benzoyl]-4-piperidyl]-6-tetrahydropyran-4-yl-3H-imidazo[4,5-b]pyridin-2-one] | 90 nM | 54 nM | 82 nM
12 | Nc1cc(OC(F)(F)F)ccc1C(=O)N1CCC(n2c(=O)[nH]c3ncc(C4CCCO4)cc32)CC1 (racemic) [Example 25, (rac)-1-[1-[2-amino-4-(trifluoromethoxy)benzoyl]-4-piperidyl]-6-tetrahydrofuran-2-yl-3H-imidazo[4,5-b]pyridin-2-one] | 57 nM | 377 nM | –

Now from value to compound:

Row | IC50 (ERK5) | IC50 [1, 2] | IC50 ([1]; footnote: repeat measurement, mean average value, read-out: Cell-free assay IC50, repeat measurement) | SMILES
13 | 361 nM | 1620 nM | – | O=C(c1ccc(S(F)(F)(F)(F)F)cc1)N1CCC(n2c(=O)[nH]c3ncc(C4CCOCC4)cc32)C1 (racemic) [Example 50, (rac)-1-[1-[4-(pentafluoro-λ^6-sulfanyl)benzoyl]pyrrolidin-3-yl]-6-tetrahydropyran-4-yl-3H-imidazo[4,5-b]pyridin-2-one]
14 | 117 nM | 78 nM | – | CN1CCC(Oc2cnc3[nH]c(=O)n(C4CCN(C(=O)c5ccc(OC(F)(F)F)cc5N)CC4)c3c2)C1 (single isomer, unassigned; isomer 2) [Example 48, 1-[1-[2-amino-4-(trifluoromethoxy)benzoyl]-4-piperidyl]-6-[1-methylpyrrolidin-3-yl]oxy-3H-imidazo[4,5-b]pyridin-2-one, Isomer 2]
15 | 273 nM | 239 nM | – | CN1CCC(Oc2cnc3[nH]c(=O)n(C4CCN(C(=O)c5ccc(OC(F)(F)F)cc5N)CC4)c3c2)C1 (single isomer, unassigned; isomer 1) [Example 47, 1-[1-[2-amino-4-(trifluoromethoxy)benzoyl]-4-piperidyl]-6-[1-methylpyrrolidin-3-yl]oxy-3H-imidazo[4,5-b]pyridin-2-one, Isomer 1]
16 | 2150 nM | 30000 nM | – | CC(C)(C)OC(=O)Nc1cc(OC(F)(F)F)ccc1C(=O)N1CCC(n2c(=O)[nH]c3ncc(Br)cc32)CC1 [Example 59, tert-butyl N-[2-[4-(6-bromo-2-oxo-3H-imidazo[4,5-b]pyridin-1-yl)piperidine-1-carbonyl]-5-(trifluoromethoxy)phenyl]carbamate]
17 | 541 nM | 1470 nM | – | Nc1cc(OC(F)(F)F)ccc1C(=O)N1CCC(n2c(=O)[nH]c3ncc(C4CCCCO4)cc32)CC1 (racemic) [Example 38, (rac)-1-[1-[2-amino-4-(trifluoromethoxy)benzoyl]-4-piperidyl]-6-tetrahydropyran-2-yl-3H-imidazo[4,5-b]pyridin-2-one]
18 | 222 nM | 288 nM | – | O=C(c1ccc(OC(F)(F)F)cc1)N1CCC(n2c(=O)[nH]c3ncc([C@H]4CC[C@@H](O)CC4)cc32)CC1 [Example 58, cis-6-(4-hydroxycyclohexyl)-1-[1-[4-(trifluoromethoxy)benzoyl]-4-piperidyl]-3H-imidazo[4,5-b]pyridin-2-one]
19 | 213 nM | 420 nM | – | Nc1cc(OC(F)(F)F)ccc1C(=O)N1CCC(n2c(=O)[nH]c3ncc(C4CCC4)cc32)CC1 [Example 29, 1-[1-[2-amino-4-(trifluoromethoxy)benzoyl]-4-piperidyl]-6-cyclobutyl-3H-imidazo[4,5-b]pyridin-2-one]
20 | 205 nM | 52 nM | – | Nc1cc(OC(F)(F)F)ccc1C(=O)N1CCC(n2c(=O)[nH]c3ncc([C@H]4CC[C@H](O)CC4)cc32)CC1 [Example 51, trans-1-[1-[2-amino-4-(trifluoromethoxy)benzoyl]-4-piperidyl]-6-(4-hydroxycyclohexyl)-3H-imidazo[4,5-b]pyridin-2-one]
21 | 244 nM | 97 nM | – | Nc1cc(OC(F)(F)F)ccc1C(=O)N1CCC(n2c(=O)[nH]c3ncc([C@H]4CC[C@@H](O)CC4)cc32)CC1 [Example 52, cis-1-[1-[2-amino-4-(trifluoromethoxy)benzoyl]-4-piperidyl]-6-(4-hydroxycyclohexyl)-3H-imidazo[4,5-b]pyridin-2-one]
22 | 118 nM | 235 nM | – | CO[C@H]1CC[C@H](c2cnc3[nH]c(=O)n(C4CCN(C(=O)c5ccc(OC(F)(F)F)cc5)CC4)c3c2)CC1 [Example 26, trans-6-(4-methoxycyclohexyl)-1-[1-[4-(trifluoromethoxy)benzoyl]-4-piperidyl]-3H-imidazo[4,5-b]pyridin-2-one]
